From patent US20260226048A1, “MULTI-CYCLIC IRAK AND FLT3 INHIBITING COMPOUNDS AND USES THEREOF” (CHILDREN'S HOSPITAL MEDICAL CENTER, priority 2023, published 2026)
pIC50: −log10 of the molar value.

Molecular target: T1, IRAK4 (Homo sapiens, UniProt Q9NWZ3)
T1 sequence (Q9NWZ3 1-460): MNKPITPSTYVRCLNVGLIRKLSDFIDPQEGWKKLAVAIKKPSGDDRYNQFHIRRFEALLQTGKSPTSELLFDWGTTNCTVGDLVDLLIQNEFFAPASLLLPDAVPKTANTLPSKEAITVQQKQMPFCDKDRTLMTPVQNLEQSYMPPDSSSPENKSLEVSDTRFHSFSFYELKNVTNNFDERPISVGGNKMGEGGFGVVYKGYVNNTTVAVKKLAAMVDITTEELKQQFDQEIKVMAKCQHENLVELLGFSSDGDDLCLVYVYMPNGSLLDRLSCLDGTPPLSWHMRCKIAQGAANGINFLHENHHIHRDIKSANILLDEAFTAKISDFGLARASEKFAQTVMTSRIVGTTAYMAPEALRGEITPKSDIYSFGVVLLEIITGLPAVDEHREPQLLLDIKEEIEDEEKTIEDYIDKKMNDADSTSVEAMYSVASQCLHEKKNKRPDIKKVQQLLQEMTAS
Test: Reaction Biology NanoBRET target engagement assay in HEK-293 cells, IRAK4
Assay type: cell-based
Settings: live HEK-293 cells transfected with Kinase-NanoLuc fusion, 1 hour
Description: The NanoBRET assay measures kinase engagement in real time in the context of the intact cell. Unlike the previously described biochemical kinase assay methodology in Example 33, the NanoBRET assay measures the binding and activity characteristics under equilibrium conditions using full-length kinases in the presence of cellular concentrations of ATP in live, uncompromised cells. As such, the assay provides a more relevant assessment of kinase potency and selectivity that would be expected to be observed in the native cellular environment, where potency is often considerably lower than that observed in the isolated biochemical assays (Vasta, J. D. et al., (2018) Cell Chem. Biol. 25, 206-214). The assay uses a Kinase-NanoLuc® fusion vector expressing a kinase protein to which a luciferase tag has been added, a cell-permeant fluorescent NanoBRET™ tracer, a NanoLuc® substrate, and an extracellular NanoLuc® inhibitor. Upon expression of the luciferase-tagged kinase, cells will produce a strong BRET signal only in the presence of the NanoBRET™ tracer. The extracellular NanoLuc® inhibitor ensures that the BRET signal observed emanates only from live cells. Because the BRET signal has tight distance constraints, addition of the test compound will decrease the BRET signal if the compound competes with the NanoBRET™ tracer for binding to the kinase domain. Under the appropriate tracer conditions established by the manufacturer, quantitative intracellular affinity and relative potency can then be determined using Mass Action model equations.
HEK-293 cells were purchased from ATCC. FuGENEHD Transfection Reagent, Kinase-NanoLucfusion plasmids, Transfection Carrier DNA, NanoBRETTracers and dilution buffer, NanoBRETNano-Glo Substrate, Extracellular NanoLucInhibitor were obtained from Promega.
Assays were conducted following Promega assay protocol with some modifications. HEK-293 Cells were transiently transfected with Kinase-NanoLucFusion Vector DNA by FuGENEHD Transfection Reagent. Testing compounds were delivered into 384 well assay plate by Echo 550 (LabcyteInc, Sunnyvale, CA). Transfected cells were harvested and mixed with NanoBRETTracer Reagent and dispensed into 384 well plates and incubated at 37° C. in 5% C02 cell culture incubator for 1 hour. The NanoBRETNano-Glo Substrate plus Extracellular NanoLucInhibitor Solution were added into the wells of the assay plate and incubated for 2-3 minutes at room temperature. The donor emission wavelength (460 nm) and acceptor emission wavelength (600 nm) were measured in the EnVisionplate reader. The BRET Ratios were calculated. BRET Ratio=[(Acceptor sample÷Donor sample)−(Acceptor no-tracer control÷Donor no-tracer control)]. The IC50 values of compounds were calculated with Prism GraphPad program.
• 1). Cultivate HEK-293 cells (70-80% confluence) appropriately prior to assay. Trypsinize and collect HEK-293 cells. • 2). Prepare lipid: DNA complexes as follows: • a. Prepare a 10 μg/ml solution of DNA in Opti-MEM without serum that consists of the following ratios of carrier DNA and DNA encoding NanoLuc® fusion. 9.0 μg/mL of Transfection Carrier DNA, 1.0 μg/mL of NanoLuc fusion vector DNA and 1 mL of Opti-MEM without phenol red. Mix thoroughly. • b. Add 30 μl of FuGENE HD Transfection Reagent into each milliliter of DNA mixture to form lipid: DNA complex. • c. Mix by inversion 10 times. • d. Incubate at ambient temperature for 20 minutes to allow complexes to form. • 3). In a sterile, conical tube, mix 1 part of lipid:DNA complex with 20 parts of HEK-293 cells in suspension. Mix gently by inversion 5 times. • 4). Dispense cells+lipid:DNA complex into a sterile tissue culture dish and incubate for 22-24 hours.
Each test compound is delivered from the compound source plate to the wells of 384-well white NBS plate by Echo 550.
3. Preparation of Cells with NanoBRET™ Tracer Reagent • 1). […]

SMILES	pIC50
CC(O)(c1ccc2ncc(-c3ccnc(N[C@@H]4CCCNC4)n3)n2c1)C(F)(F)F (single isomer, unassigned) [Compound 22a]	> 9.30
CC(O)(c1ccc2ncc(-c3ccnc(N[C@@H]4CCCNC4)n3)n2c1)C(F)(F)F (single isomer, unassigned) [Compound 23a]	> 9.30
CC(O)(c1ccc2ncc(-c3ccnc(N[C@H]4CNCC[C@@H]4F)n3)n2c1)C(F)(F)F (single isomer, unassigned) [Compound 25a]	8.70
CC(O)(c1ccc2ncc(-c3cncc(N[C@@H]4CCCNC4)n3)n2c1)C(F)(F)F (single isomer, unassigned) [Compound 28a]	> 9.30
CC(O)(c1ccc2ncc(-c3cncc(N[C@H]4CNCC[C@@H]4F)n3)n2c1)C(F)(F)F (single isomer, unassigned) [Compound 31a]	> 9.30
COc1cc2ncc(-c3nc(N[C@H]4CNCC[C@@H]4F)ncc3F)n2nc1C1CC1 [Compound 1a, 4-(6-cyclopropyl-7-methoxyimidazo[1,2-b]pyridazin-3-yl)-5-fluoro-N-((3S,4S)-4-fluoropiperidin-3-yl)pyrimidin-2-amine]	> 9.30
FC(F)COc1cc2ncc(-c3ccnc(N[C@H]4CNCC[C@@H]4F)n3)n2nc1C1CC1 [Compound 4a, 4-(6-cyclopropyl-7-(2,2-difluoroethoxy)imidazo[1,2-b]pyridazin-3-yl)-N-((3 S,4S)-4-fluoropiperidin-3-yl)pyrimidin-2-amine]	9.10
F[C@H]1CCNC[C@@H]1Nc1nccc(-c2cnc3cc(OC4CC4)c(C4CC4)nn23)n1 [Compound 12a, 4-(7-cyclopropoxy-6-cyclopropylimidazo[1,2-b]pyridazin-3-yl)-N-((3S,4S)-4-fluoropiperidin-3-yl)pyrimidin-2-amine]	> 9.30
COc1cc2ncc(-c3nc(N[C@H]4CNCC[C@@H]4F)ncc3F)n2nc1C(C)(C)O [Compound 45a, 2-(3-(5-fluoro-2-(((3S,4S)-4-fluoropiperidin-3-yl)amino)pyrimidin-4-yl)-7-methoxyimidazo[1,2-b]pyridazin-6-yl)propan-2-ol]	8.52
CC(C)(O)c1ccc2ncc(-c3nc(N[C@H]4CNCC[C@@H]4F)ncc3F)n2c1 [Compound 46a, 2-(3-(5-fluoro-2-(((3S,4S)-4-fluoropiperidin-3-yl)amino)pyrimidin-4-yl)imidazo[1,2-a]pyridin-6-yl)propan-2-ol]	8.40
CC(C)(O)c1ccc2ncc(-c3nc(N[C@@H]4CCCNC4)ncc3F)n2c1 [Compound 48a, (R)-2-(3-(5-fluoro-2-(piperidin-3-ylamino)pyrimidin-4-yl)imidazo[1,2-a]pyridin-6-yl)propan-2-ol]	8.30
COc1cc2ncc(-c3nc(N[C@H]4CNCC[C@@H]4F)ncc3F)n2nc1C1CC(F)(F)C1 [Compound 49a, 4-(6-(3,3-difluorocyclobutyl)-7-methoxyimidazo[1,2-b]pyridazin-3-yl)-5-fluoro-N-((3S,4S)-4-fluoropiperidin-3-yl)pyrimidin-2-amine]	> 9.30
COc1cc2ncc(-c3ccnc(N[C@H]4CNCC[C@@H]4F)n3)n2nc1C1CCC1 [Compound 79a, 4-(6-cyclobutyl-7-methoxyimidazo[1,2-b]pyridazin-3-yl)-N-((3S,4S)-4-fluoropiperidin-3-yl)pyrimidin-2-amine]	> 9.30
COc1cc2ncc(-c3nc(N[C@H]4CNCC[C@@H]4F)ncc3F)n2nc1C1COC1 [Compound 92a, 5-fluoro-N-((3S,4S)-4-fluoropiperidin-3-yl)-4-(7-methoxy-6-(oxetan-3-yl)imidazo[1,2-b]pyridazin-3-yl)pyrimidin-2-amine]	> 9.30
CC(C)(O)c1cn2c(-c3nc(N[C@H]4CNCC[C@@H]4F)ncc3F)cnc2cn1 [Compound 100a, 2-(3-(5-fluoro-2-(((3S,4S)-4-fluoropiperidin-3-yl)amino)pyrimidin-4-yl)imidazo[1,2-a]pyrazin-6-yl)propan-2-ol]	8.10
COc1cc2ncc(-c3nc(N[C@H]4CNC[C@@H]4F)ncc3F)n2nc1N1CCCS1(=O)=O [Compound 111a, 2-(3-(5-fluoro-2-(((3S,4S)-4-fluoropyrrolidin-3-yl)amino)pyrimidin-4-yl)-7-methoxyimidazo[1,2-b]pyridazin-6-yl)isothiazolidine 1,1-dioxide]	7.47
COc1cc2ncc(-c3nc(N[C@H]4CNCC[C@@H]4F)ncc3F)n2nc1N1CCCS1(=O)=O [Compound 112a, 2-(3-(5-fluoro-2-(((3S,4S)-4-fluoropiperidin-3-yl)amino)pyrimidin-4-yl)-7-methoxyimidazo[1,2-b]pyridazin-6-yl)isothiazolidine 1,1-dioxide]	> 9.30
